Reference: article PMC9743426, “Expanding the Chemical Space of Drug-like Passerini Compounds: Can α-Acyloxy Carboxamides Be Considered Hard Drugs?” (ACS Medicinal Chemistry Letters, 2022)

Experiments:
[1] = Hydrolytic stability in mouse liver microsomes (MLM); assay type: in vitro ADME; details: 30 min; for Residual substrate percentage, MLM: mouse liver microsomes 1.0 mg/mL protein, substrate 10 μM, 37 °C
Description: (§1) For all 43 compounds, a first evaluation of their chemical and metabolic stabilities toward hydrolysis was performed by incubating them in buffer under physiological conditions (50 mM Tris-HCl, pH 7.4) and in mouse liver microsomes (Table 1). This model was chosen because, similar to the human liver, both of the carboxylesterase isoforms are present. […] A more interesting trend was instead possible to observe with benzoic acids.
(§2) Hydrolytic stability in MLM and HLM
(§3) The standard incubation mixture (200 µL final volume) was carried out in a 50 mM TRIS-HCl buffer (pH 7.4) containing 150 mM KCl, tween 80 as cosolvent (0.8 mg/mg protein), and the substrate (10 μM). After pre-equilibration of the mixture, an appropriate volume of MLM or HLM suspension was added to give a final protein concentration of 1.0 mg/mL. The mixture was shaken for 30 minutes at 37 °C. Control incubations were carried out without the presence or microsomes or in pure acetonitrile. Each incubation was stopped by the addition of 200 µL ice-cold acetonitrile, vortexed and centrifuged at 13000 rpm for 5 min. The supernatants were analyzed by LC-HRMS. […]

[2] = Hydrolytic stability in human plasma; assay type: in vitro ADME; details: substrate 10 μM, 30 min, 37 °C
Description: As a final point, for some of the compounds characterized by the best hepatic stability, we also evaluated them in human plasma (Table 2) and under acidic and alkaline conditions (see the Supporting Information), the latter to ascertain the stability of α-acyloxy carboxamides in the gastrointestinal tract. […] Once again, the ortho,ortho′-disubstitution of the aromatic ring is the one that gives the best metabolic stability. […]
Hydrolytic stability in human plasma
The standard incubation mixture (100 μL final volume) was carried out by dissolving the tested substrate compounds (10 μM) in DMSO (5% final volume) in preincubated plasma at 37 °C. The mixture was shaken for 30 min at 37 °C. Control incubations were carried out without substrate. Each incubation was stopped by addition of 200 μL of ice-cold acetonitrile, vortexed, and centrifuged at 13000 rpm for 10 min. The supernatants were analyzed by LC-HRMS. […]

[3] = Hydrolytic stability in human liver microsomes (HLM); assay type: in vitro ADME; details: 30 min; for Residual substrate percentage, HLM: human liver microsomes 1.0 mg/mL protein, substrate 10 μM, 37 °C
Description: This was made in light of the fact that the overall metabolizing capability of murine hepatic enzymes, including carboxylesterases, is supposed to be higher compared to the human ones.[17]
as §2, §3

[4] = Hydrolytic (chemical) stability in Tris-HCl buffer pH 7.4; assay type: physicochemical; details: 50 mM Tris-HCl buffer pH 7.4, incubation 30 min, without microsomes
Description: as §1, §2, §3

P. aeruginosa ATCC 9027 = assay: Antibacterial activity, agar well-diffusion method; assay type: cell-based, Pseudomonas aeruginosa; details: for Antibacterial activity (in words): P. aeruginosa ATCC 9027, 1 mg/mL; for Inhibition zone: P. aeruginosa ATCC 9027, 1 mg/mL in DMSO, 55 μL per 6 mm well, 24 h at 37 °C, average ± SD
Description: Recently an article presented the synthesis of 1,3-phenylenebis(2-(cyclohexylamino)-2-oxoethane-1,1-diyl) dibenzoate (99) (Figure 6), obtained with a double Passerini reaction starting from 1,3-benzenedicarbaldehyde. […] According to our studies, compounds 99 is expected to suffer from metabolic instability, whereas the new analogue 100 designed by us (Figure 6), containing methyl groups at the two ortho positions in each benzoate group, should be metabolically stable. We then synthesized the two compounds and evaluated their antibacterial activities on P. aeruginosa and their hydrolytic stabilities. The in vitro antibacterial activities of 99 and 100 were evaluated against the P. aeruginosa ATCC 9027 strain. […] No inhibition halos were observed around the wells containing DMSO alone.
The in vitro antibacterial activity of the compounds was assayed against the Gram-negative P. aeruginosa
ATCC 9027 by the agar well-diffusion method. Compounds 99, 100, and gentamycin were dissolved in
DMSO (Scharlab, Barcelona, ES) and tested at the concentration of 1 mg/mL. For comparison, gentamycin
was used as a negative control of growth and DMSO as positive control of growth. The strain, obtained from
the American Type Culture Collection (ATCC, Manassas, VA, United States) and stored at −80 °C in Brain
Heart Infusion (Scharlab, Barcelona, ES) with 25% glycerol (Scharlab, Barcelona, ES), was cultured onto
Tryptic Soy Agar (Scharlab, Barcelona, ES) at 37°C for 16 h.
A bacterial suspension (ca. 1.5×10^8 Colony Forming Unit per ml) was prepared in isotonic saline solution
(NaCl 0,9%) and spread onto Muller-Hinton agar (Scharlab, Barcelona, ES) surfaces using a sterile swab.
Wells (6 mm diameter) were punched using a sterile punch cutter and filled with 55 μL of each sample. Plates
were left at room temperature for 1h to allow each sample to diffuse into the agar and then incubated at 37 °C
for 24 h. Finally, the inhibition zone diameters were measured.
The assay was carried out in triplicate and repeated twice. Results were expressed as average values ± standard

Pseudomonas aeruginosa = test system: Pseudomonas aeruginosa; design: method as in doi:10.1155/2013/125959; details: mixture of two enantiomers and a meso form; cited from earlier work

Compound	Residual substrate percentage, MLM [1] [%]	Hydrolysis of the ester group in mouse liver microsomes (in words) [1]	Residual substrate percentage, plasma [2] [%]	Residual substrate percentage, HLM [3] [%]	Hydrolytic stability in human liver microsomes (in words) [3]	Residual substrate percentage, buffer [4] [%]	Antibacterial activity (in words) (P. aeruginosa ATCC 9027)	Inhibition zone (P. aeruginosa ATCC 9027) [mm]	Antibacterial activity against Pseudomonas aeruginosa (in words) (Pseudomonas aeruginosa)
Cc1cccc(C)c1C(OC(=O)c1ccccc1)C(=O)NC(C)(C)C (stereo not shown) [Compound 57]	3	rapidly degraded	90	73	stable	>99			
CC(C)(C)NC(=O)C(OC(=O)c1ccccc1)c1ccccc1-c1ccccc1 (stereo not shown) [Compound 58]	2	rapidly degraded	90	>99	stable	>99			
Cc1cccc(C)c1C(=O)OC(C(=O)NC1CCCCC1)c1cccc(C(OC(=O)c2c(C)cccc2C)C(=O)NC2CCCCC2)c1 (stereo not shown) [Compound 100]	95	completely stable	84	>99	completely stable	>99	moderate antibacterial activities	10.4 ± 1.3	
gentamycin								22.3 ± 1.7	
Cc1cccc(C)c1C(=O)OC(C(=O)NC(C)(C)C)c1ccccc1 (stereo not shown) [Compound 78, 2-(tert-butylamino)-2-oxo-1-phenylethyl 2,6-dimethylbenzoate]	>99		>99	>99	excellent stability	>99			
O=C(OC(C(=O)NC1CCCCC1)c1cccc(C(OC(=O)c2ccccc2)C(=O)NC2CCCCC2)c1)c1ccccc1 (stereo not shown) [Compound 99, 1,3-phenylenebis(2-(cyclohexylamino)-2-oxoethane-1,1-diyl) dibenzoate, reference compound]	5	high instability	93	47	hydrolytic stability increased	>99	moderate antibacterial activities	10.2 ± 1.2	good antibacterial activity
Cc1cccc(Cl)c1C(=O)OCC(=O)NC(C)(C)C [Compound 80]	97		>99	>99	excellent stability	98			
Cc1ccc(Br)c(C)c1C(=O)OCC(=O)NC(C)(C)C [Compound 98]	>99	extremely stable	>99	>99	excellent stability	>99			
